This test concerns the target PARP7 (Homo sapiens (Human), UniProt Q7Z3E1). Description: Enzymatic assay for inhibition of PARP7: TR-FRET displacement of biotinylated Probe A from the TIPARP active site. In kind it is binding. The note with it: Table A-1. The procedure, abridged: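 Displacement of biotinylated Probe A from TIPARP was measured as the 665/615 nm time-resolved FRET ratio (excitation 320 nm, 90 μs delay) after a further 30 min at 25 °C. Inhibition across compound concentrations was fitted by dose-response regression, with the Hill slope free or fixed at 1 (3-parameter fit).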
On the technique in general: In TR-FRET formats the signal depends on donor and acceptor labels being close together.

The values below come from patent publication US10550105B2 (Ribon Therapeutics Inc., priority 2018, dated 2020).

The structures appear in SMILES notation.

Chain of PARP7 (Q7Z3E1 whole entry): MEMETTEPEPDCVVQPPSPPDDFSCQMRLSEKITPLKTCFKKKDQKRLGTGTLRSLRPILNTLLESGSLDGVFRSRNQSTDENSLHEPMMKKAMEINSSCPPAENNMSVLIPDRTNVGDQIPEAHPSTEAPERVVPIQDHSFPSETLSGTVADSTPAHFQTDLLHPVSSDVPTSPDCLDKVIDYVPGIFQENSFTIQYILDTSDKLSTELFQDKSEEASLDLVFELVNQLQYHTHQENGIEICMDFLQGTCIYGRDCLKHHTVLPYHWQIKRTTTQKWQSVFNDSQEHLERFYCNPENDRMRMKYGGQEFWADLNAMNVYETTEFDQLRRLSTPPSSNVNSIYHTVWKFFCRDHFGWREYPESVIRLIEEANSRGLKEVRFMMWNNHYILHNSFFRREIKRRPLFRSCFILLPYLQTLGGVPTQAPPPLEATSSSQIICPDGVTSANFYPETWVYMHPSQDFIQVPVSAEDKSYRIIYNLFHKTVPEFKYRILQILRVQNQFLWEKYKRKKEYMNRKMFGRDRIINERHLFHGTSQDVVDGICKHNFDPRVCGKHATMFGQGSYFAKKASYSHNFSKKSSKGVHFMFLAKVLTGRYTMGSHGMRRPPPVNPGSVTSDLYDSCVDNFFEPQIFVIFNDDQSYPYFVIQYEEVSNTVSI

For orientation: IC50 means the midpoint of a concentration-inhibition curve. A high value points to lower potency. `N#Cc1ccc(N2CCN(C(=O)CCOCCOc3cn[nH]c(=O)c3Cl)CC2)nc1` [Example 521, 6-[4-(3-[2-[(5-Chloro-6-oxo-1,6-dihydropyridazin-4-yl)oxy]ethoxy]propanoyl)piperazin-1-yl]pyridine-3-carbonitrile] gave an IC50 of less than 100 nM.

Regarding `O=C(CCOCCOc1cn[nH]c(=O)c1Cl)N1CCN(c2ncc(Cl)cn2)CC1` [Example 522, 4-Chloro-5-(2-[3-[4-(5-chloropyrimidin-2-yl)piperazin-1-yl]-3-oxopropoxy]ethoxy)-2,3-dihydropyridazin-3-one], the 50% inhibitory concentration (IC50) was less than 100 nM.

The compound `N#Cc1ccc(N2CCN(C(=O)CNCCCOc3cn[nH]c(=O)c3C(F)(F)F)CC2)nc1` [Example 524] had a half-inhibitory concentration (IC50) of 100 to 1000 nM.

As to `N#Cc1ccc(N2CCN(C(=O)CCCOCCOc3cn[nH]c(=O)c3C(F)(F)F)CC2)nc1` [Example 525, 6-[4-[4-(2-[[6-Oxo-5-(trifluoromethyl)-1,6-dihydropyridazin-4-yl]oxy]ethoxy)butanoyl]piperazin-1-yl]pyridine-3-carbonitrile], the IC50 was less than 100 nM.

Regarding `CN(CCOCCCN1CCN(c2ccc(C#N)cn2)CC1)c1cn[nH]c(=O)c1C(F)(F)F` [Example 526, 6-[4-[3-(2-[Methyl[6-oxo-5-(trifluoromethyl)-1,6-dihydropyridazin-4-yl]amino]ethoxy)propyl]piperazin-1-yl]pyridine-3-carbonitrile], the half-inhibitory concentration (IC50) lay within 100 to 1000 nM.

`N#Cc1ccc(N2CCN(C(=O)CCOC[C@@H](Nc3cn[nH]c(=O)c3C(F)(F)F)c3ccncc3)CC2)nc1` [Example 527A, 6-(4-[3-[(2S)-2-[[6-Oxo-5-(trifluoromethyl)-1,6-dihydropyridazin-4-yl]amino]-2-(pyridin-4-yl)ethoxy]propanoyl]piperazin-1-yl)pyridine-3-carbonitrile]: the concentration for half-maximal inhibition (IC50) is less than 100 nM.

Take `N#Cc1ccc(N2CCN(C(=O)CCOC[C@H](Nc3cn[nH]c(=O)c3C(F)(F)F)c3ccncc3)CC2)nc1` [Example 527B, 6-(4-[3-[(2R)-2-[[6-Oxo-5-(trifluoromethyl)-1,6-dihydropyridazin-4-yl]amino]-2-(pyridin-4-yl)ethoxy]propanoyl]piperazin-1-yl)pyridine-3-carbonitrile]: the IC50 is no less than 1000 nM.

Take `C[C@@H](CC(=O)N1CCN(c2ccc(C#N)cn2)CC1)OCCNc1cn[nH]c(=O)c1C(F)(F)F` [Example 528A]: the IC50 was less than 100 nM.

Take `C[C@H](CC(=O)N1CCN(c2ccc(C#N)cn2)CC1)OCCNc1cn[nH]c(=O)c1C(F)(F)F` [Example 528B]: the 50% inhibitory concentration (IC50) is less than 100 nM.

In the case of `N#Cc1ccc(N2CCN(C(=O)CCOCC(CO)Nc3cn[nH]c(=O)c3C(F)(F)F)CC2)nc1` (stereo not shown) [Example 529, 6-[4-[3-(3-Hydroxy-2-[[6-oxo-5-(trifluoromethyl)-1,6-dihydropyridazin-4-yl]amino]propoxy)propanoyl]piperazin-1-yl]pyridine-3-carbonitrile], the half-maximal inhibitory concentration (IC50) was less than 100 nM.

The compound `C[C@@H](COCCC(=O)N1CCN(c2ccc(C#N)cn2)CC1)Oc1cn[nH]c(=O)c1C(F)(F)F` [Example 530A, 6-(4-[3-[(2S)-2-[[6-Oxo-5-(trifluoromethyl)-1,6-dihydropyridazin-4-yl]oxy]propoxy]propanoyl]piperazin-1-yl)pyridine-3-carbonitrile] returned an IC50 of less than 100 nM.

`C[C@H](COCCC(=O)N1CCN(c2ccc(C#N)cn2)CC1)Oc1cn[nH]c(=O)c1C(F)(F)F` [Example 530B, 6-(4-[3-[(2R)-2-[[6-Oxo-5-(trifluoromethyl)-1,6-dihydropyridazin-4-yl]oxy]propoxy]propanoyl]piperazin-1-yl)pyridine-3-carbonitrile] had an IC50 of 100 to 1000 nM.

In turn, `C[C@@H](COc1cn[nH]c(=O)c1C(F)(F)F)OCCC(=O)N1CCN(c2ccc(C#N)cn2)CC1` [Example 530C, 6-[4-(3-[[(2S)-1-[[6-Oxo-5-(trifluoromethyl)-1,6-dihydropyridazin-4-yl]oxy]propan-2-yl]oxy]propanoyl)piperazin-1-yl]pyridine-3-carbonitrile] showed a 50% inhibitory concentration (IC50) of 100 to 1000 nM.

On to `C[C@H](COc1cn[nH]c(=O)c1C(F)(F)F)OCCC(=O)N1CCN(c2ccc(C#N)cn2)CC1` [Example 530D, 6-[4-(3-[[(2R)-1-[[6-Oxo-5-(trifluoromethyl)-1,6-dihydropyridazin-4-yl]oxy]propan-2-yl]oxy]propanoyl)piperazin-1-yl]pyridine-3-carbonitrile], for which the IC50 was less than 100 nM.

For the compound `N#Cc1ccc(N2CCN(C(=O)CCO[C@@H]3COC[C@@H]3Oc3cn[nH]c(=O)c3C(F)(F)F)CC2)nc1` [Example 531, 6-[4-(3-[[(3R,4S)-4-[[6-Oxo-5-(trifluoromethyl)-1,6-dihydropyridazin-4-yl]oxy]oxolan-3-yl]oxy]propanoyl)piperazin-1-yl]pyridine-3-carbonitrile], the IC50 was less than 100 nM.

In turn, `O=C(CCOCCOc1cn[nH]c(=O)c1C(F)(F)F)N1CCN(c2ncc(Cl)cn2)CC1` [Example 533, 5-(2-[3-[4-(5-Chloropyrimidin-2-yl)piperazin-1-yl]-3-oxopropoxy]ethoxy)-4-(trifluoromethyl)-2,3-dihydropyridazin-3-one] returned an IC50 of less than 100 nM.

`O=C(CCOCCOc1cn[nH]c(=O)c1C(F)(F)F)N1CCN(c2ncc(C(F)(F)F)cn2)CC1` [Example 534, 5-[2-(3-Oxo-3-[4-[5-(trifluoromethyl)pyrimidin-2-yl]piperazin-1-yl]propoxy)ethoxy]-4-(trifluoromethyl)-2,3-dihydropyridazin-3-one] yielded a half-inhibitory concentration (IC50) of less than 100 nM.

`O=C(CCOCCOc1cn[nH]c(=O)c1C(F)(F)F)N1CCN(c2ccc(Cl)cn2)CC1` [Example 535, 5-(2-[3-[4-(5-Chloropyridin-2-yl)piperazin-1-yl]-3-oxopropoxy]ethoxy)-4-(trifluoromethyl)-2,3-dihydropyridazin-3-one] displayed an IC50 of less than 100 nM.

Compound `O=C(CCOCCOc1cn[nH]c(=O)c1C(F)(F)F)N1CCN(c2ccc(C(F)(F)F)cn2)CC1` [Example 536, 5-[2-(3-Oxo-3-[4-[5-(trifluoromethyl)pyridin-2-yl]piperazin-1-yl]propoxy)ethoxy]-4-(trifluoromethyl)-2,3-dihydroyridazin-3-one] gave an IC50 of less than 100 nM.

As for `N#Cc1ccc(N2CCN(C(=O)CCOC3Cc4ccccc4C3Oc3cn[nH]c(=O)c3C(F)(F)F)CC2)nc1` (stereo not shown) [Example 540, 6-(4-[3-[(1-[[6-Oxo-5-(trifluoromethyl)-1,6-dihydropyridazin-4-yl]oxy]-2,3-dihydro-1H-inden-2-yl)oxy]propanoyl]piperazin-1-yl)pyridine-3-carbonitrile], the half-inhibitory concentration (IC50) fell in the range of 100 to 1000 nM.

`N#Cc1ccc(N2CCN(C(=O)CCO[C@H]3CC[C@H]3Nc3cn[nH]c(=O)c3C(F)(F)F)CC2)nc1` [Example 541, 6-(4-[3-[(1S,2R)-2-[[6-Oxo-5-(trifluoromethyl)-1,6-dihydropyridazin-4-yl]amino]cyclobutoxy]propanoyl]piperazin-1-yl)pyridine-3-carbonitrile] showed an IC50 of less than 100 nM.

Turning to `CN(C)CC(COCCC(=O)N1CCN(c2ccc(C#N)cn2)CC1)Oc1cn[nH]c(=O)c1C(F)(F)F` (stereo not shown) [Example 542, 6-(4-[3-[3-(Dimethylamino)-2-[[6-oxo-5-(trifluoromethyl)-1,6-dihydropyridazin-4-yl]oxy]propoxy]propanoyl]piperazin-1-yl)pyridine-3-carbonitrile], the half-inhibitory concentration (IC50) was less than 100 nM.

Take `C[C@H](COCCC(=O)N1CCN(c2ncc(Cl)cn2)CC1)Oc1cn[nH]c(=O)c1C(F)(F)F` [Example 543 Isomer D, (R)-5-(1-(3-(4-(5-chloropyrimidin-2-yl)piperazin-1-yl)-3-oxopropoxy)propan-2-yloxy)-4-(trifluoromethyl)pyridazin-3(2H)-one]: the IC50 lay in the range of 100 to 1000 nM.

In turn, `O=C(CCOCCOc1cn[nH]c(=O)c1Br)N1CCN(c2ncc(Cl)cn2)CC1` [Example 547, 4-Bromo-5-(2-[3-[4-(5-chloropyrimidin-2-yl)piperazin-1-yl]-3-oxopropoxy]ethoxy)-2,3-dihydropyridazin-3-one] gave a half-inhibitory concentration (IC50) of less than 100 nM.

As for `O=C(CCOCCOc1cn[nH]c(=O)c1Br)N1CCN(c2ncc(C(F)(F)F)cn2)CC1` [Example 548, 4-Bromo-5-[2-(3-oxo-3-[4-[5-(trifluoromethyl)pyrimidin-2-yl]piperazin-1-yl]propoxy)ethoxy]-2,3-dihydropyridazin-3-one], the IC50 was less than 100 nM.

Compound `Cc1c(OCCOCCC(=O)N2CCN(c3ncc(Cl)cn3)CC2)cn[nH]c1=O` [Example 549, 5-(2-[3-[4-(5-Chloropyrimidin-2-yl)piperazin-1-yl]-3-oxopropoxy]ethoxy)-4-methyl-2,3-dihydropyridazin-3-one] displayed a 50% inhibitory concentration (IC50) of less than 100 nM.

In turn, `Cc1c(OCCOCCC(=O)N2CCN(c3ncc(C(F)(F)F)cn3)CC2)cn[nH]c1=O` [Example 550, 4-Methyl-5-[2-(3-oxo-3-[4-[5-(trifluoromethyl)pyrimidin-2-yl]piperazin-1-yl]propoxy)ethoxy]-2,3-dihydropyridazin-3-one] had an IC50 of less than 100 nM.

For the compound `Cc1c(OCCOCCC(=O)N2CCN(c3ccc(C#N)cn3)CC2)cn[nH]c1=O` [Example 551, 6-[4-(3-[2-[(5-Methyl-6-oxo-1,6-dihydropyridazin-4-yl)oxy]ethoxy]propanoyl)piperazin-1-yl]pyridine-3-carbonitrile], the 50% inhibitory concentration (IC50) was less than 100 nM.

Regarding `N#Cc1c(OCCOCCC(=O)N2CCN(c3ncc(Cl)cn3)CC2)cn[nH]c1=O` [Example 552, 5-(2-[3-[4-(5-Chloropyrimidin-2-yl)piperazin-1-yl]-3-oxopropoxy]ethoxy)-3-oxo-2,3-dihydropyridazine-4-carbonitrile], the IC50 was less than 100 nM.

Compound `N#Cc1c(OCCOCCC(=O)N2CCN(c3ncc(C(F)(F)F)cn3)CC2)cn[nH]c1=O` [Example 553, 3-Oxo-5-[2-(3-oxo-3-[4-[5-(trifluoromethyl)pyrimidin-2-yl]piperazin-1-yl]propoxy)ethoxy]-2,3-dihydropyridazine-4-carbonitrile] displayed a half-maximal inhibitory concentration (IC50) of less than 100 nM.

Compound `N#Cc1ccc(N2CCN(C(=O)CCOCCOc3cn[nH]c(=O)c3C#N)CC2)nc1` [Example 554, 5-(2-[3-[4-(5-Cyanopyridin-2-yl)piperazin-1-yl]-3-oxopropoxy]ethoxy)-3-oxo-2,3-dihydropyridazine-4-carbonitrile] returned a half-maximal inhibitory concentration (IC50) of less than 100 nM.
